Data published in patent US20130142847A1, “S-ADENOSYLMETHIONINE FORMULATIONS WITH ENHANCED BIOAVAILABILITY” (Methylation Sciences, Inc., priority 2009, published 2013).
One block for each molecule: values may come before it.

Legend:
[1] = Single dose pharmacokinetic study of enteric coated SAMe capsules in fasted male beagle dogs; assay type: in vivo; details: for effect on in vivo bioavailability of SAMe / amount of SAMe in the plasma versus control: beagle dogs, capsule 200 mg SAMe ion + 200 mg enhancer vs control capsule, result in words
Protocol: Following collection, samples were centrifuged (at 4° C.) to separate the plasma fraction from the blood cells. The resulting plasma fraction was recovered and stored frozen (at −80° C.) using polypropylene tubes pending bioanalytical analysis.
This method employs stable-isotope dilution liquid chromatography-electrospray […] tandem mass spectrometry (LC-ESI-MS/MS) to determine SAMe and SAH in plasma.

Caco-2 cell monolayers [2] = experiment: 24 hour resistance recovery test (Caco-2 cell recovery post treatment); assay type: cell-based, human
Protocol: As part of these in vitro studies, the degree of Caco-2 cell recovery (as observed by degree of permeability and cell attachment 24 hours post treatment with each tight junction modulator) was also investigated. This 24 hour resistance recovery test is an indirect measure of epithelial cell disruption and data supporting a trend toward less in vitro disruption may be associated with less impact in vivo.

Caco-2 cell monolayers [3] = experiment: Caco-2 permeability of SAMe in the presence of tight junction modulators (Examples 3a, 3c); details: for effect on SAMe uptake / SAMe permeability: in the presence of the agent, result in words; for change in SAMe permeability across the Caco-2 cell monolayer: sulfobetaine 0.15 mM as the enhancer; for Permeability Coefficient: SAMe permeability; for Fold Transport Increase: SAMe transport vs SAMe control
Protocol: (§1) Similar to the description above, the Caco-2 cell line was obtained from ATCC and grown in DMEM (Sigma-Aldrich) supplemented with 20% FBS (Sigma-Aldrich), 100 uM non-essential amino acids (Sigma-Aldrich) and 2 mM L-glutamine (Sigma-Aldrich). The Caco-2 cells grown in tissue culture flasks were trypsinized, suspended in medium, and the suspensions were applied to wells of a collagen-coated BioCoat Cell Environment in 24-well format at 24,500 cells per well. The cells were allowed to grow and differentiate for three weeks, feeding at 2-day intervals.
(§2) For apical to basolateral permeability, a 2 mM aqueous solution of SAMe tosylate disulfate was added to the apical side and the amount of permeation was determined on the basolateral side. The apical and basolateral side buffers contained modified Transport Buffer (25 mM HEPES, 1× Hank's Balanced Salt Solution (Sigm-Aldrich)) pH 7.4. Caco-2 cells were incubated with these buffers for 2 hours, and the receiver side buffer was removed for analysis by LC/MS/MS. The receiver, donor, and dosing solution were diluted with an equal volume of 0.2 N HCl immediately after the assay in order to increase SAMe stability. Donor and dosing solution were diluted 100-fold to ensure that the concentration was within the linear range of the assay.
(§3) The permeability (Papp) of SAMe is calculated using the following formula:
(§4) Where dQ/dt is the rate of permeation, C0 is the initial concentration of test agent, and A is the area of the monolayer.
(§5) In vitro Caco-2 testing was performed as detailed above using 0.15 mM of sulfobetaine-10, sulfobetaine-12, sulfobetaine-14, sulfobetaine-16, or sulfobetaine-18 as the enhancer.

[4] = Permeability of SAMe across Caco-2 cell monolayers (Example 3); details: human, Caco-2, pH 7.4
Protocol: (§6) In these models, pure cell lines are grown on a semi-permeable membrane. Drug formulations are placed on the apical or basolateral side of the cell monolayer and transport is determined via measurement of drug concentrations on the other side of the membrane.
(§7) The Caco-2 cell line utilized here was from the American Type Culture Collection (ATCC). Caco-2 cells are grown in Dulbecco's modified Eagle's medium (DMEM, Gibco) supplemented with 20% FBS (fetal bovine serum, Gibco), 100 uM non-essential amino acids (NEAA, Gibco) and 2 mM L-glutamine (Gibco). A Beckton Dickinson BIOCOAT® HTS Caco-2 Assay System Kit is used resulting in 6.6×10^5 cells/cm^2 seeding density (BIOCOAT is a registered trademark of Collaborative Biomedical Products, Inc., Bedford, Mass., USA). The cells used in transport studies are grown for 3 days before the experiments. The culturing conditions are 37° C. in an atmosphere of 5% CO2 and 100% humidity.
(§8) For permeability across Caco-2 cell monolayers, the transport medium used was Hank's Buffered Salt Solution (HBSS; purchased from Gibco) containing D-glucose, and HEPES pH adjusted to 7.4. A 2 mM aqueous solution of either SAMe tosylate disulfate or SAMe 1,4 butanedisulfonate was added on the apical or basolateral side according to the manufacturer's procedure for the Caco-2 kit. Samples were measured after 120 minute incubation by liquid chromatography-mass spectrometry (LC/MS). The integrity of the monolayers was monitored using Lucifer Yellow Assay. […] Propranolol is a high permeability marker and was utilized as a positive control for a readily absorbed molecule.

Caco-2 cell monolayers [5] = experiment: as above; details: for Papp_a-b Apical to Basal: apical to basolateral; for Papp_a-b Apical to Basal / Papp_b-a Basal to Apical: HBSS pH 7.4, 120 minute incubation, SAMe salt 2 mM; for Papp_b-a Basal to Apical: basolateral to apical
Protocol: as §6, §7, §8

[6] = Caco-2 permeability of SAMe in the presence of tight junction modulators (Examples 3a, 3c); details: human, Caco-2, pH 7.4, Permeability Coefficient, permeability control compound itself, 50 uM
Protocol: as §1, §2, §3, §4, §5

[7] = Plasma SAMe metabolites after 1600 mg of a commercially available SAMe formulation; assay type: in vivo; details: all time points after 1600 mg dose of commercially available SAMe; seven subjects
Protocol: This finding is in contrast to the general dogma surrounding SAMe metabolism which continually reports that low SAMe bioavailability is due to active metabolism by the liver upon administration. […] In order to test this theory, the inventors measured the level of S-adenosyl homocysteine (SAH), the primary metabolite of SAMe, at various time points after administration of a 1600 mg dose of a commercially available SAMe formulation.

Caco-2 cells = details: McMillan et al. 2005; cited from earlier work
cultured rat hepatocytes = details: McMillan et al. 2005; cited from earlier work
[8] = literature reports; cited from earlier work
[9] = plasma, fasted male beagle dogs, single oral enteric coated capsule, 200 mg SAMe ion with or without 200 mg enhancer

TEER Resist. 24 hour post assay (Caco-2 cell monolayers [2]; enhancer 0.6 mM): 33 ohms
effect on SAMe uptake / SAMe permeability (Caco-2 cell monolayers [3]): marked increase in SAMe permeability
change in SAMe permeability across the Caco-2 cell monolayer (Caco-2 cell monolayers [3]): at least a five-fold increase
SMILES: CCCCCCCCCCCCCCCC[N+](C)(C)CCCS(=O)(=O)[O-] [3-(N,N-Dimethylpalmitylammonio)propanesulfonate]
effect on in vivo bioavailability of SAMe / amount of SAMe in the plasma versus control [1]: significant increase in the amount of SAMe present in the plasma

SMILES: CCCCCCCCCCCCCCCC(=O)OC(CC(=O)O)C[N+](C)(C)C.[Cl-] (stereo not drawn) [Palmitoyl Carnitine Chloride (PCC), Palmitoyl carnitine chloride]
Permeability Coefficient (Caco-2 cell monolayers [3]; test article 0.15 mM, run 2): 0.78 ×10⁻⁶ cm/s
Permeability Coefficient (Caco-2 cell monolayers [3]; test article 0.15 mM, run 4): 5 ×10⁻⁶ cm/s
Permeability Coefficient (Caco-2 cell monolayers [3]; test article 0.4 mM, run 4): 10 ×10⁻⁶ cm/s
effect on SAMe uptake / SAMe permeability (Caco-2 cell monolayers [3]): marked increase in SAMe permeability

Papp A→B at 120 min [4]: 22.4 ×10⁻⁶ cm/s
Papp B→A at 120 min [4]: 18.4 ×10⁻⁶ cm/s
Papp_a-b Apical to Basal (Caco-2 cell monolayers [5]): 22.4 ×10⁻⁶ cm/s
Papp_b-a Basal to Apical (Caco-2 cell monolayers [5]): 18.4 ×10⁻⁶ cm/s
SMILES: CC(C)NCC(O)COc1cccc2ccccc12 (stereo not drawn) [Propranolol]

Papp at 2 h, 50 uM ([6]; run 2): 0.91 ×10⁻⁶ cm/s
Papp at 2 h, 50 uM ([6]; run 3): 0.91 ×10⁻⁶ cm/s
Papp at 2 h, 50 uM ([6]; run 4): 1 ×10⁻⁶ cm/s
SMILES: CNC(=C[N+](=O)[O-])NCCSCc1ccc(CN(C)C)o1 [Ranitidine, reference compound]

SMILES: Nc1ncnc2c1ncn2[C@@H]1O[C@H](CSCC[C@H](N)C(=O)O)[C@@H](O)[C@H]1O [SAH, S-adenosyl homocysteine]
plasma concentration of SAH relative to SAMe [7]: significantly lower than the level of SAMe itself

Papp_a-b Apical to Basal (Caco-2 cell monolayers [5]): 0.5 ×10⁻⁶ cm/s
Papp_b-a Basal to Apical (Caco-2 cell monolayers [5]): 0.6 ×10⁻⁶ cm/s
SMILES: C[S+](CC[C@H](N)C(=O)[O-])C[C@H]1O[C@@H](n2cnc3c(N)ncnc32)[C@H](O)[C@@H]1O.O=S(=O)(O)CCCCS(=O)(=O)O (stereo partly drawn) [SAMe 1,4 butanedisulfonate]

SMILES: C[S+](CC[C@H](N)C(=O)O)C[C@H]1O[C@@H](n2cnc3c(N)ncnc32)[C@H](O)[C@@H]1O (stereo partly drawn) [SAMe, S-adenosyl-L-methionine]
transport through a monolayer of Caco-2 cells (Caco-2 cells): poorly transported
fold increase in SAMe permeability (Caco-2 cell monolayers [5]; calcium-free buffer): 13-24 fold
absorption by cultured rat hepatocytes (cultured rat hepatocytes): poorly absorbed
SAMe bioavailability when orally administered [8]: less than 5%

SMILES: CCCCCCCCCC(=O)[O-].[Na+] [Sodium Caprate]
effect on in vivo bioavailability of SAMe / amount of SAMe in the plasma versus control [1]: did not enhance the in vivo bioavailability of SAMe

TEER Resist. 24 hour post assay (Caco-2 cell monolayers [2]; enhancer 0.15 mM): 1553 ohms
Permeability Coefficient (Caco-2 cell monolayers [3]; enhancer 0.15 mM (Table 7)): 0.218 ×10⁻⁶ cm/s
Fold Transport Increase (Caco-2 cell monolayers [3]; enhancer 0.15 mM (Table 7)): 1.2X
SMILES: CCCCCCCC[N+](C)(C)CCCS(=O)(=O)[O-] [Sulfobetaine-8]

TEER Resist. 24 hour post assay (Caco-2 cell monolayers [2]; enhancer 0.15 mM): 1923 ohms
Permeability Coefficient (Caco-2 cell monolayers [3]; enhancer 0.15 mM (Table 7)): 0.257 ×10⁻⁶ cm/s
Fold Transport Increase (Caco-2 cell monolayers [3]; enhancer 0.15 mM (Table 7)): 1.4X
change in SAMe permeability across the Caco-2 cell monolayer (Caco-2 cell monolayers [3]): did not improve SAMe permeability
SMILES: CCCCCCCCCCCC[N+](C)(C)CCCS(=O)(=O)[O-] [Sulfobetaine-12]

SAMe AUC [1, 9]: 10226 ng·h/mL
SAMe Cmax [1, 9]: 4148 ng/mL
TEER Resist. 24 hour post assay (Caco-2 cell monolayers [2]; enhancer 0.15 mM): 1892 ohms
Permeability Coefficient (Caco-2 cell monolayers [3]; enhancer 0.15 mM (Table 7)): 0.654 ×10⁻⁶ cm/s
Fold Transport Increase (Caco-2 cell monolayers [3]; enhancer 0.15 mM (Table 7)): 5.0X
change in SAMe permeability across the Caco-2 cell monolayer (Caco-2 cell monolayers [3]): at least a five-fold increase
SMILES: CCCCCCCCCCCCCC[N+](C)(C)CCCS(=O)(=O)[O-] [Sulfobetaine-14]
effect on in vivo bioavailability of SAMe / amount of SAMe in the plasma versus control [1]: significant increase in the bioavailability of SAMe

TEER Resist. 24 hour post assay (Caco-2 cell monolayers [2]; enhancer 0.15 mM): 292 ohms
Permeability Coefficient (Caco-2 cell monolayers [3]; enhancer 0.15 mM (Table 7)): 0.649 ×10⁻⁶ cm/s
Fold Transport Increase (Caco-2 cell monolayers [3]; enhancer 0.15 mM (Table 7)): 5.0X
change in SAMe permeability across the Caco-2 cell monolayer (Caco-2 cell monolayers [3]): at least a five-fold increase
SMILES: CCCCCCCCCCCCCCCCCC[N+](C)(C)CCCS(=O)(=O)[O-] [Sulfobetaine-18]

Papp at 2 h, 50 uM ([6]; run 2): 48.8 ×10⁻⁶ cm/s
Papp at 2 h, 50 uM ([6]; run 3): 49 ×10⁻⁶ cm/s
Papp at 2 h, 50 uM ([6]; run 4): 46.6 ×10⁻⁶ cm/s
SMILES: CC(=O)CC(c1ccccc1)c1c(O)c2ccccc2oc1=O (stereo not drawn) [Warfarin, reference compound]

change in SAMe permeability across the Caco-2 cell monolayer (Caco-2 cell monolayers [3]): did not improve SAMe permeability
SMILES: CCCCCCCCCC[N+](C)(C)CCCS(=O)(=O)[O-] [sulfobetaine-10]
